Data from patent US4622388A, “Des-2-serine, 3 asparagine-calcitonin” (Armour Pharmaceutical Company, priority 1985, dated 1986).
Positions of bridges follow the written chain, without caps; N, C: chain ends. Residues, ends and D or L forms follow the SMILES beside them.

Experiments:
[1] = test system: serum calcium concentration; experiment: Biological assay of calcitonin analogs in vivo: reduction of serum calcium concentration, 2x2 parallel line assay; design: species or system Rats
Protocol: The biological potency of des-2-serine, 3-asparagine-salmon calcitonin was determined by comparing the reduction of serum calcium concentration which followed administration by graded doses of des-Ser^2, […] -SCT and synthetic salmon calcitonin standard. Rats were divided into four groups of seven animals, and each group was assigned at random to a dose of standard or test solution. Low and high doses were chosen from the linear portion of the dose-response curve. For the salmon calcitonin standard, the values were 0.7 and 2.1 ng. peptide/100 g. body weight (BW). This dose approximates 3 and 9 MU/100 g. BW. Peptides were given by subcutaneous injection (0.2 ml/100 g. BW) and blood was withdrawn 1 hour later for serum calcium determination. Sera are processed and analyzed within two hours of collection. […]. Results were analyzed by a 2×2 parallel line assay [Gaddum, J. H. J. Pharm. Pharmacol., 6, 345 (1953)]. The standard salmon calcitonin used was independently determined to contain greater than 4,000 IU/mg. des-Ser^2, Asn^3 -SCT assayed at 4350 IU/mg.

[2] = literature value, Monikawa et al.; cited from earlier work

CC(C)C[C@H](NC(=O)[C@H](CCCCN)NC(=O)CNC(=O)[C@H](CC(C)C)NC(=O)[C@@H](NC(=O)[C@@H]1CSSC[C@H](N)C(=O)N[C@@H](CC(C)C)C(=O)N[C@@H](CO)C(=O)N[C@@H]([C@@H](C)O)C(=O)N1)C(C)C)C(=O)N[C@@H](CO)C(=O)N[C@@H](CCC(N)=O)C(=O)N[C@@H](CCC(=O)O)C(=O)N[C@@H](CC(C)C)C(=O)N[C@@H](Cc1c[nH]cn1)C(=O)N[C@@H](CCCCN)C(=O)N[C@@H](CC(C)C)C(=O)N[C@@H](CCC(N)=O)C(=O)N[C@H](C(=O)N[C@@H](Cc1ccc(O)cc1)C(=O)N1CCC[C@H]1C(=O)N[C@@H](CCCNC(=N)N)C(=O)N[C@H](C(=O)N[C@@H](CC(N)=O)C(=O)N[C@H](C(=O)NCC(=O)N[C@@H](CO)C(=O)NCC(=O)N[C@H](C(=O)N1CCC[C@H]1C(N)=O)[C@@H](C)O)[C@@H](C)O)[C@@H](C)O)[C@@H](C)O [des-Ser^2, Asn^3 -SCT, des-2-serine, 3-asparagine-salmon calcitonin] (H-CLSTCVLGKLSQELHKLQTYPRTNTGSGTP-NH2; disulfide 1-5)
biological potency (reduction of serum calcium concentration) ([1]; rats, subcutaneous injection, blood withdrawn 1 hour later, vs synthetic salmon calcitonin standard): 4350 IU/mg

CC(C)C[C@H](NC(=O)[C@H](CCCCN)NC(=O)CNC(=O)[C@H](CC(C)C)NC(=O)[C@@H](NC(=O)[C@@H]1CSSC[C@H](N)C(=O)N[C@@H](CO)C(=O)N[C@@H](CC(N)=O)C(=O)N[C@@H](CC(C)C)C(=O)N[C@@H](CO)C(=O)N[C@@H]([C@@H](C)O)C(=O)N1)C(C)C)C(=O)N[C@@H](CO)C(=O)N[C@@H](CCC(N)=O)C(=O)N[C@@H](CCC(=O)O)C(=O)N[C@@H](CC(C)C)C(=O)N[C@@H](Cc1c[nH]cn1)C(=O)N[C@@H](CCCCN)C(=O)N[C@@H](CC(C)C)C(=O)N[C@@H](CCC(N)=O)C(=O)N[C@H](C(=O)N[C@@H](Cc1ccc(O)cc1)C(=O)N1CCC[C@H]1C(=O)N[C@@H](CCCNC(=N)N)C(=O)N[C@H](C(=O)N[C@@H](CC(N)=O)C(=O)N[C@H](C(=O)NCC(=O)N[C@@H](CO)C(=O)NCC(=O)N[C@H](C(=O)N1CCC[C@H]1C(N)=O)[C@@H](C)O)[C@@H](C)O)[C@@H](C)O)[C@@H](C)O [standard salmon calcitonin, Salmon calcitonin]
potency of the standard salmon calcitonin, independently determined ([1]; standard used in the assay, independently determined): greater than 4,000 IU/mg

(1,7-α-L-amino-suberic acid)eel calcitonin
hypocalcemic potency [2]: about 3400 IU/mg.

eel calcitonin [synthetic eel calcitonin]
hypocalcemic potency [2]: around 4300 IU/mg.
